{"source": "paper PMC12454639", "about": "“Direct disassembly of α-syn preformed fibrils into α-syn monomers by an all-D-peptide” (NPJ Parkinson's Disease, 2025)", "system": "small α-syn PFF seeds", "assay": "Time-dependent DLS of small α-syn PFF seeds disassembly", "assay_type": "biochemical", "parameters": "rate constant of PFF disassembly: unit not given here", "conditions": "200 nM PFF + 500 nM SVD-1a", "method": "Fig. 4 SVD-1a disassembles small α-syn PFF seeds into α-syn monomers. Small α-syn PFF seeds were prepared as described previously. […] A and B Time-dependent DLS measurements with 200 nM small α-syn PFF seeds in the absence (A) and presence (B) of 500 nM SVD-1a. 1 ml sample was continuously measured in a sealed quartz cuvette at 37 °C under quiescent conditions every 60 s for 72 h in a SpectroSize 300 instrument (XtalConcepts, GE). Data are shown as a radius plot where the signal amplitude of each particle size is represented by the data point diameter. C One-phase exponential decay fit of “200 nM PFF + 500 nM SVD-1a” shown in (B). Fit was performed for particles in the range of 1–100 nm with an amplitude > 0.2. Outliers were excluded from fitting using a Q value of 1%. […] Fitting was performed using the “One phase exponential decay” fitting function from GraphPad Prism 10 (GraphPad Software Inc., USA). […] D For AFM analysis, small α-syn PFF seeds pretreated with or without 400 and 1600 nM SVD-1a were incubated and dried on a freshly cleaved mica surface, followed by washing with ddH2O and drying using a gentle stream of N2. Analysis was performed using the NanoWizard 3 system (J-1100, JPK BioAFM, USA), recording multiple surface sections. The sections shown are representative of the observed species and particle density identified on all surface sections. E Exemplary Western blot of small α-syn PFF samples incubated with SVD-1a. 200 nM small α-syn PFFs (monomer equivalent) were incubated with increasing concentrations of SVD-1a for 72 h at 37 °C. PFF and monomer samples that were incubated without SVD-1a served as controls. α-Syn was detected with the antibody Syn211. A prominent α-syn monomer band was present at the expected molecular weight. Below the monomer bands, no further bands were visible. In the upper part of the blot, above the marker range, PFFs were detected, using a longer exposure time due to a weaker signal (see Supplementary Fig. 11 for the whole blot image with different exposure times). F Size-based fractionation by centrifugal concentration followed by ELISA quantification. 200 nM small α-syn PFF (monomer equivalent) were incubated with or without SVD-1a together with a 200 nM monomer control for 72 h at 37 °C. After incubation, the samples were fractioned using a 100 kDa MWCO centrifugal concentrator (Merck, Microcon DNA Fast Flow 100 MWCO). α-Syn content of flow through (red) and retentate (blue) was quantified using an α-syn specific ELISA (BioLegend, Human α-Synuclein (Colorimetric), 448607). Shown are the fractions of the retentate and flow through as a percentage of the total concentration identified for each sample. A linear regression line (blue or red dotted lines) was included for the SVD-1a-treated samples (left) to underline the concentration dependency of the SVD-1a treatment effect. The fractions identified for the α-syn monomer control sample are shown as a bar graph (right). […] Data are shown as mean values with ±SD (n = 3).\nsmall α-syn PFF seeds were prepared as described previously with some modifications. […] The monomer equivalent concentration was determined by measuring the α-syn concentration in the supernatant after the first centrifugation and subtracting it from the start concentration for fibrilization. […]", "key": {"[1]": {"conditions": "one-phase exponential decay, 37 °C"}}, "note": "Square brackets hold non-standard residues; d marks the D form. Peptide text beside a SMILES is read from it.", "data": [{"smiles": "CC[C@@H](C)[C@@H](NC(=O)[C@@H](Cc1c[nH]cn1)NC(=O)[C@@H](CCC(=O)O)NC(=O)[C@@H](CCC(N)=O)NC(=O)[C@@H](Cc1c[nH]c2ccccc12)NC(=O)[C@@H](Cc1ccc(O)cc1)NC(=O)[C@H](NC(=O)[C@@H](CCC(=O)O)NC(=O)[C@@H](Cc1c[nH]cn1)NC(=O)[C@H](NC(=O)[C@H]1CCCN1C(=O)[C@@H](CC(C)C)NC(=O)[C@H](N)CCCNC(=N)N)[C@H](C)O)[C@H](C)O)C(=O)N[C@H](Cc1c[nH]c2ccccc12)C(=O)N[C@H](Cc1c[nH]cn1)C(=O)N[C@H](C)C(=O)N[C@H](CCCNC(=N)N)C(=O)N[C@H](CCCNC(=N)N)C(=O)N[C@H](CCCNC(=N)N)C(=O)N[C@H](CCCNC(=N)N)C(=O)N[C@H](CCCNC(=N)N)C(N)=O", "note": "[SVD-1a] (H-[dR][dL][dP][dT][dH][dE][dT][dY][dW][dQ][dE][dH][dI][dW][dH][dA][dR][dR][dR][dR][dR]-NH2)", "values": [{"measurement": "radius of monomeric α-syn formed", "setting": "37 °C, 72 h", "result": "~ 1.6 nm"}, {"measurement": "span of one-phase exponential decay", "setting": "PBS pH 7.4, 37 °C, 72 h, particles 1–100 nm, amplitude > 0.2", "result": 23.38, "unit": "nm"}, {"measurement": "radius of small α-syn PFF seeds eliminated", "setting": "no change (26 nm) without SVD-1a", "result": "~ 26 nm"}, {"measurement": "half-life of PFF disassembly", "setting": "[1]", "result": 5.2, "unit": "h"}, {"measurement": "rate constant of PFF disassembly", "setting": "[1]", "result": 0.132}]}]}
